Values of other authors, collected in patent USRE39480E1, “Chromium/biotin treatment of type II diabetes” (Nutrition 21, Inc., priority 1997, dated 2007).

Columns and labels:
[1] = tested on: rats made diabetic by injection with streptozotocin; settings: high-dose oral or parenteral biotin
[2] = tested on: pre-diabetic Otsuka Long-Evans Tokushima Fatty rats; settings: high-dose oral or parenteral biotin
[3] = tested on: diabetic KK mice; settings: high-dose oral or parenteral biotin
[4] = tested on: Type I diabetics; settings: daily oral dose of 16 mg; insulin injections temporarily discontinued
[5] = tested on: poorly-controlled type II diabetics; settings: 3 mg biotin three times per day
[6] = oral biotin intakes of up to 200 mg daily
[7] = tested on: individuals with Type II diabetes; settings: 1,000 μg chromium per day as chromic tripicolinate
[8] = tested on: Type II diabetes; settings: doses which provide between 50 and 500 μg of chromium

| Molecule | oral glucose tolerance [1] | oral glucose tolerance [2] | oral glucose tolerance [3] | fasting plasma glucose levels [4] | fasting insulin levels [5] | glucose levels [5] | pancreatic beta cell function [5] | side effects or toxicities [6] | decrease in glycosylated hemoglobin [7] | change in glycosylated hemoglobin [8] | glycosylated hemoglobin value obtained after chromic tripicolinate treatment ([8]; still within the diabetic range) |
| --- | --- | --- | --- | --- | --- | --- | --- | --- | --- | --- | --- |
| O=C(O)CCCC[C@@H]1SC[C@@H]2NC(=O)N[C@@H]21 [biotin] | improve oral glucose tolerance | improve oral glucose tolerance | improve oral glucose tolerance | lowered fasting plasma glucose levels | did not decline | sharp decline | improved pancreatic beta cell function | no side effects or toxicities were noted | – | – | – |
| chromic tripicolinate | – | – | – | – | – | – | – | – | 30% | small decrease | 10.4% |
